Earlier results as cited in patent US11602517B2, “Pharmaceutical composition, comprising polmacoxib and pregabalin, for treatment of pain” (CRYSTALGENOMICS, INC., priority 2018, dated 2023).

What was measured:
[1] = white or light yellow crystalline powder

CC(C)C[C@H](CN)CC(=O)O [Pregabalin, (S)-(+)-3-(aminomethyl)-5-methyl-hexanoic acid]
solubility in water [1]: soluble in water | average absorption time (absorbed from the upper part of the small intestine): 6 h | time to reach maximum blood concentration (absorption in the body): ≤ 1.3 h | bioavailability (in vivo): about 90%
